Measurements taken from patent publication US8552208B2, “Analogs of tetramic acid” (University of Tennesseee Research Foundation, priority 2007, dated 2013).
≈ marks a conversion by molar mass, not a printed value. Where two headings read alike, the source gives them in different places.

Columns and labels:
[1] = tested on: MRSA (ATCC 35391) biofilm; assay: Calgary Biofilm Device anti-biofilm activity; assay type: cell-based, Staphylococcus aureus; conditions: for MIC: read-out: MBIC = Minimum Biofilm Inhibitory Concentration
[2] = tested on: S. epidermidis (RP62A) biofilm; assay: Calgary Biofilm Device anti-biofilm activity; assay type: cell-based; conditions: Staphylococcus epidermidis; for MIC: read-out: MBIC = Minimum Biofilm Inhibitory Concentration
[3] = tested on: MSSA (ATCC 25293) biofilm; assay: Calgary Biofilm Device anti-biofilm activity; assay type: cell-based; conditions: Staphylococcus aureus; for MBC: read-out: MBEC = Minimum Biofilm Eradication Concentration
[4] = tested on: Mycobacterium tuberculosis H37 Rv; assay: Antibacterial activity assay (MIC, broth dilution); assay type: cell-based; conditions: H37RV, 168 h; Mycobacterium tuberculosis H37 Rv; […]; read-out: MIC, TB
[5] = tested on: Bacillus anthracis Sterne 34F2; assay: microbe, parasite or virus in culture; assay type: cell-based; conditions: STERNE34F2, read-out: MIC, BA
[6] = tested on: Bacillus subtilis ATCC 23857; assay: Antibacterial activity assay (MIC, broth dilution); assay type: cell-based; conditions: ATCC23857; Bacillus subtilis ATCC 23857; read-out: MIC, BS
[7] = tested on: Streptococcus pneumoniae DAW30EC; assay: Antibacterial activity assay (MIC, broth dilution); assay type: cell-based; conditions: Streptococcus pneumoniae DAW30EC; read-out: MIC, SPn
[8] = tested on: Enterococcus faecalis ATCC 33186; assay: Antibacterial activity assay (MIC, broth dilution); assay type: cell-based; conditions: ATCC33186; Enterococcus faecalis ATCC 33186; read-out: MIC, EF
[9] = tested on: Methicillin Resistant Staphylococcus aureus ATCC 33591; assay: Antibacterial activity assay (MIC, broth dilution); assay type: cell-based; conditions: ATCC 33591 / MRSA, read-out: MIC, MRSA
[10] = tested on: Methicillin sensitive Staphylococcus aureus 8325 ATCC 35556; assay: Antibacterial activity assay (MIC, broth dilution); assay type: cell-based; conditions: ATCC 35556 / MSSA; Methicillin sensitive Staphylococcus aureus 8325 ATCC 35556; read-out: MIC, MSSA
[11] = tested on: Propionibacterium acnes ATCC 6919; assay: Antibacterial activity assay (MIC, broth dilution); assay type: cell-based; conditions: Cutibacterium acnes, ATCC6919; Propionibacterium acnes ATCC 6919; read-out: MIC, PA
[12] = tested on: Streptococcus pyogenes ATCC 700294; assay: Antibacterial activity assay (MIC, broth dilution); assay type: cell-based; conditions: ATCC700294; Streptococcus pyogenes ATCC 700294; read-out: MIC, SP
Cytotoxicity assay (MTT) = assay type: cell-based, monkey; conditions: monkey, Vero cells, 72 hours, MTT, read-out: IC50 (Cytotoxicity): Concentration which reduces viability of Vero kidney cells by 50%
Experimental: (§1) Cytotoxicity assays of drugs of Formula I of Example 3 and of Formula II of Example 5 were performed using the Vero monkey kidney cell line (ATCC, CCL-81). Vero cells were grown in tissue culture flasks in Dulbecco's Modified Eagle's Medium (ATCC) supplemented with 10% fetal bovine serum and maintained in a humidified incubator (37° C., 5% CO2). Cells were removed with a cell scraper, collected by centrifugation and then suspended in fresh medium at ˜10^6 cells/mL. The cell suspensions were dispensed into 96-well microtiter plates (100 μl/well) and incubated for 18 hours at 37° C. before being used for cytotoxicity assays. Test compounds were subsequently added at concentrations ranging from 400-0.024 μg/mL and 0.1% vol/vol of Triton-X 100, which causes 100% death of cells, was included as a control. After incubating cells and compounds for 72 hours in humid air (37° C., 5% CO2) the cytopathic effects of compounds were determined using the MTT Cell Proliferation Assay (ATCC, Cat No. 30-1010K). The MTT solution reagent (10 μl) was added to each well and plates incubated at 37° C. until sufficient purple color development occurred in cells (3 hours). After detergent cell lysis, the purple formazan product was measured at 570 nm in a Synergy HT Biotek microplate reader. IC50 data was obtained from dose response curves plotted from percentage activity versus log10 concentration using Graphpad prism 5.

[13] = tested on: Vero monkey kidney cell line (ATCC, CCL-81); assay: Cytotoxicity assay (MTT); assay type: cell-based; conditions: IC50 divided by MIC against S. aureus 8325
Experimental: as §1

[14] = tested on: clinical isolates of MRSA (methicillin resistant S. aureus); assay type: cell-based
[15] = tested on: clinical isolates of MSSA (methicillin sensitive S. aureus); assay type: cell-based
[16] = Vero monkey kidney cells (ATCC CCL-81)

## CN[C@H](CC(C)C)C(=O)N[C@H]1C(=O)N[C@@H](CC(N)=O)C(=O)N[C@H]2C(=O)N[C@H]3C(=O)N[C@H](C(=O)N[C@H](C(=O)O)c4cc(O)cc(O)c4-c4cc3ccc4O)[C@H](O)c3ccc(c(Cl)c3)Oc3cc2cc(c3O[C@@H]2O[C@H](CO)[C@@H](O)[C@H](O)[C@H]2O[C@H]2C[C@](C)(N)[C@H](O)[C@H](C)O2)Oc2ccc(cc2Cl)[C@H]1O [Vancomycin, vancomycin, reference compound]
[1]; Staphylococcus aureus, read-out: MBEC = Minimum Biofilm Eradication Concentration
  MBC: > 400 µg/mL
[1]; Staphylococcus aureus
  MIC: 1.6 µg/mL (≈ 1.1 µM)
[2]; read-out: MBEC = Minimum Biofilm Eradication Concentration
  MBC: > 400 µg/mL
[2]
  MIC: 12.5 µg/mL (≈ 8.63 µM)
[3]
  MBC: > 400 µg/mL

## COc1cccc(CN2C(=O)/C(=C(/C)O)C(=O)[C@@H]2CC(C)C)c1 [Compound 13d, (S,Z)-3-(1-hydroxyethylidene)-5-isobutyl-1-(3-methoxybenzyl)pyrrolidine-2,4-dione]
[4]
  MIC: 100 µg/mL (≈ 315 µM)
[5]
  MIC: 25 µg/mL (≈ 78.8 µM)
[6]
  MIC: 25 µg/mL (≈ 78.8 µM)
[7]
  MIC: 50 µg/mL (≈ 158 µM)
[8]
  MIC: 100 µg/mL (≈ 315 µM)
[9]
  MIC: 25 µg/mL (≈ 78.8 µM)
[10]
  MIC: 12.5 µg/mL (≈ 39.4 µM)
[11]
  MIC: 12.5 µg/mL (≈ 39.4 µM)
[12]
  MIC: 200 µg/mL (≈ 630 µM)
Cytotoxicity assay (MTT)
  IC50 at 72 h: 40 µg/mL
[13]
  IC50/MIC = Selectivity (therapeutic) index: 3.2

## CO[C@H]1/C=C/O[C@@]2(C)Oc3c(C)c(O)c4c(O)c(c(/C=N/N5CCN(C)CC5)c(O)c4c3C2=O)NC(=O)/C(C)=C\C=C\[C@H](C)[C@H](O)[C@@H](C)[C@@H](O)[C@@H](C)[C@H](OC(C)=O)[C@@H]1C [Rifampicin, rifampicin, reference compound]
[1]; MRSA biofilm, triplicate runs listed singly
  MBIC = Minimum Biofilm Inhibitory Concentration: <0.2 µg/mL
[1]; Staphylococcus aureus, MRSA biofilm, triplicate runs listed singly
  MIC: < 0.2 µg/mL
[2]; S. epidermidis biofilm, triplicate runs listed singly
  MIC: < 0.2 µg/mL
[3]; MSSA biofilm, triplicate runs listed singly
  MBC: 100 µg/mL (≈ 122 µM)
[3]; MSSA biofilm, triplicate runs listed singly, read-out: MBIC = Minimum Biofilm Inhibitory Concentration
  MIC: 0.4 µg/mL (≈ 0.486 µM)

## C/C(O)=C1\C(=O)[C@@H](Cc2ccccc2)N(Cc2ccccc2)C1=O [Compound 13g, (R,Z)-1,5-dibenzyl-3-(1-hydroxyethylidene)pyrrolidine-2,4-dione]
[4]
  MIC: > 200 µg/mL
[5]
  MIC: 25 µg/mL (≈ 77.8 µM)
[6]
  MIC: 25 µg/mL (≈ 77.8 µM)
[7]
  MIC: 50 µg/mL (≈ 156 µM)
[8]
  MIC: 100 µg/mL (≈ 311 µM)
[9]
  MIC: 25 µg/mL (≈ 77.8 µM)
[10]
  MIC: 25 µg/mL (≈ 77.8 µM)
[11]
  MIC: 25 µg/mL (≈ 77.8 µM)
[12]
  MIC: 200 µg/mL (≈ 622 µM)
Cytotoxicity assay (MTT); [16]
  IC50 at 72 h: 80.6 µg/mL
[13]
  IC50/MIC = Selectivity (therapeutic) index: 3.2

## CCCCN1C(=O)/C(=C(/C)O)C(=O)[C@@H]1CC(C)C [Compound 13j, (S,Z)-1-butyl-3-(1-hydroxyethylidene)-5-isobutylpyrrolidine-2,4-dione]
[4]
  MIC: 100 µg/mL (≈ 395 µM)
[5]
  MIC: 12.5 µg/mL (≈ 49.3 µM)
[6]
  MIC: 6.25 µg/mL (≈ 24.7 µM)
[7]
  MIC: 100 µg/mL (≈ 395 µM)
[8]
  MIC: 1.6 µg/mL (≈ 6.32 µM)
[9]
  MIC: 6.25 µg/mL (≈ 24.7 µM)
[10]
  MIC: 3.12 µg/mL (≈ 12.3 µM)
[11]
  MIC: 0.8 µg/mL (≈ 3.16 µM)
[12]
  MIC: > 200 µg/mL
Cytotoxicity assay (MTT)
  IC50 at 72 h: 254 µg/mL
[13]
  IC50/MIC = Selectivity (therapeutic) index: 81.4
[14]; isolate MRSA-1
  Antibiotic MIC: 50 µg/mL
[14]; isolate MRSA-2
  Antibiotic MIC: 25 µg/mL
[14]; isolate MRSA-3
  Antibiotic MIC: 25 µg/mL
[14]; isolate MRSA-4
  Antibiotic MIC: 25 µg/mL
[14]; isolate MRSA-5
  Antibiotic MIC: 25 µg/mL
[14]; isolate MRSA-6
  Antibiotic MIC: 25 µg/mL
[14]; isolate MRSA-7
  Antibiotic MIC: 50 µg/mL
[14]; isolate MRSA-9
  Antibiotic MIC: 6.25 µg/mL
[14]; isolate MRSA-10
  Antibiotic MIC: 50 µg/mL
[15]; isolate MSSA-11
  Antibiotic MIC: 12.5 µg/mL
[15]; isolate MSSA-12
  Antibiotic MIC: 6.25 µg/mL
[15]; isolate MSSA-13
  Antibiotic MIC: 12.5 µg/mL
[15]; isolate MSSA-14
  Antibiotic MIC: 25 µg/mL
[15]; isolate MSSA-15
  Antibiotic MIC: 3.12 µg/mL
[15]; isolate MSSA-16
  Antibiotic MIC: 6.25 µg/mL
[15]; isolate MSSA-17
  Antibiotic MIC: 6.25 µg/mL
[15]; isolate MSSA-18
  Antibiotic MIC: 6.25 µg/mL
[15]; isolate MSSA-19
  Antibiotic MIC: 3.12 µg/mL
[15]; isolate MSSA-20
  Antibiotic MIC: 25 µg/mL

## CCCCCCCCCCN1C(=O)/C(=C(/C)O)C(=O)[C@@H]1Cc1ccccc1 [Compound 13n, (S,Z)-5-benzyl-1-decyl-3-(1-hydroxyethylidene)pyrrolidine-2,4-dione]
[4]
  MIC: 50 µg/mL (≈ 135 µM)
[5]
  MIC: 0.2 µg/mL (≈ 0.538 µM)
[6]
  MIC: 0.4 µg/mL (≈ 1.08 µM)
[7]
  MIC: 12.5 µg/mL (≈ 33.6 µM)
[8]
  MIC: 0.8 µg/mL (≈ 2.15 µM)
[9]
  MIC: 0.8 µg/mL (≈ 2.15 µM)
[10]
  MIC: 0.2 µg/mL (≈ 0.538 µM)
[11]
  MIC: 0.4 µg/mL (≈ 1.08 µM)
[12]
  MIC: 50 µg/mL (≈ 135 µM)
Cytotoxicity assay (MTT); [16]
  IC50 at 72 h: 21.1 µg/mL
[13]
  IC50/MIC = Selectivity (therapeutic) index: 105.5
[14]; isolate MRSA-1
  Antibiotic MIC: 1.6 µg/mL
[14]; isolate MRSA-2
  Antibiotic MIC: 1.6 µg/mL
[14]; isolate MRSA-3
  Antibiotic MIC: 1.6 µg/mL
[14]; isolate MRSA-4
  Antibiotic MIC: 0.8 µg/mL
[14]; isolate MRSA-5
  Antibiotic MIC: 0.8 µg/mL
[14]; isolate MRSA-6
  Antibiotic MIC: 0.8 µg/mL
[14]; isolate MRSA-7
  Antibiotic MIC: 0.8 µg/mL
[14]; isolate MRSA-8
  Antibiotic MIC: 0.2 µg/mL
[14]; isolate MRSA-9
  Antibiotic MIC: 0.8 µg/mL
[14]; isolate MRSA-10
  Antibiotic MIC: 0.8 µg/mL
[15]; isolate MSSA-11
  Antibiotic MIC: 0.8 µg/mL
[15]; isolate MSSA-12
  Antibiotic MIC: 0.8 µg/mL
[15]; isolate MSSA-13
  Antibiotic MIC: 0.8 µg/mL
[15]; isolate MSSA-14
  Antibiotic MIC: 1.6 µg/mL
[15]; isolate MSSA-15
  Antibiotic MIC: 0.2 µg/mL
[15]; isolate MSSA-16
  Antibiotic MIC: 0.8 µg/mL
[15]; isolate MSSA-17
  Antibiotic MIC: 0.8 µg/mL
[15]; isolate MSSA-18
  Antibiotic MIC: 0.8 µg/mL
[15]; isolate MSSA-19
  Antibiotic MIC: 0.4 µg/mL
[15]; isolate MSSA-20
  Antibiotic MIC: 0.8 µg/mL

## C/C(O)=C1\C(=O)[C@H](CC(C)C)N(Cc2ccc(F)cc2)C1=O [Compound 13e, (S,Z)-1-(4-fluorobenzyl)-3-(1-hydroxyethylidene)-5-isobutylpyrrolidine-2,4-dione]
[4]
  MIC: 100 µg/mL (≈ 327 µM)
[5]
  MIC: 12.5 µg/mL (≈ 40.9 µM)
[6]
  MIC: 25 µg/mL (≈ 81.9 µM)
[7]
  MIC: 50 µg/mL (≈ 164 µM)
[8]
  MIC: 50 µg/mL (≈ 164 µM)
[9]
  MIC: 25 µg/mL (≈ 81.9 µM)
[10]
  MIC: 12.5 µg/mL (≈ 40.9 µM)
[11]
  MIC: 6.25 µg/mL (≈ 20.5 µM)
[12]
  MIC: 100 µg/mL (≈ 327 µM)
Cytotoxicity assay (MTT)
  IC50 at 72 h: 27.8 µg/mL
[13]
  IC50/MIC = Selectivity (therapeutic) index: 2.2
